Assays:
[1] = tested on: Alcaligenes odorans 33585; test: Pattern of inhibition using silicone-emulsion CO2 sensors (Table 3); assay type: cell-based; settings: 4 h, 37° C., 5×10^7 CFU/ml
Description: (§1) Microbial identification using the described CO2 sensors can also be based on the principle of growth inhibition. This system differs from the classical biochemical identification systems, as identification is based on selective growth inhibition by inhibitory agents, such as dyes, antibiotics, and other substances. Once again, the production of CO2 is the measure of growth. The growth pattern produced in the presence of these inhibitory agents identifies the species of the test microorganism. The amount of growth is compared with a growth control well that contains no inhibitor. A profile is derived using a two-stage quadratic discriminate analysis based on the results derived from the battery of inhibitory agents.
(§2) Microtiter plates (96 flat bottom wells) containing 0.05% xylenol blue silicone-emulsion sensors were filled with 100 microliters of microbial growth medium containing no inhibitors (growth control wells) and eighteen different dyes, antibiotics, and other inhibitory substances. Final concentrations of the inhibitors were achieved after addition of 100 microliters of inoculum (final inoculum of 5×10^7 CFU/ml) of the representative microorganisms.
(§3) After inoculating the microtiter tray, it was sealed with a pressure sensitive plastic plate sealer and initial readings were taken with a reflectance reader. The plate was then placed into a 37° C. incubator. After four hours incubation, the plate was removed and final reflectance readings were taken.

Escherichia coli 33582 = test: as above; assay type: cell-based; settings: 4 h, 37° C., 5×10^7 CFU/ml
Description: as §1, §2, §3

Proteus mirabilis 33583 = test: as above; assay type: cell-based; settings: 4 h, 37° C., 5×10^7 CFU/ml
Description: as §1, §2, §3

[2] = tested on: Pseudomonas aeruginosa 33584; test: as above; assay type: cell-based; settings: 4 h, 37° C., 5×10^7 CFU/ml
Description: as §1, §2, §3

[3] = Table 2, cited from earlier work; for pH range: acid-base indicator

N[C@@H]1CON=C1O [Cycloserine]
Percent growth as compared to a growth control without antibiotics ([1]; 78 mcg): 116%
Percent growth as compared to a growth control without antibiotics ([1]; 240 mcg): 27%
Percent growth as compared to a growth control without antibiotics (Escherichia coli 33582; 78 mcg): 13%
Percent growth as compared to a growth control without antibiotics (Escherichia coli 33582; 240 mcg): 8%
Percent growth as compared to a growth control without antibiotics (Proteus mirabilis 33583; 78 mcg): 107%
Percent growth as compared to a growth control without antibiotics (Proteus mirabilis 33583; 240 mcg): 26%
Percent growth as compared to a growth control without antibiotics ([2]; 78 mcg): 56%
Percent growth as compared to a growth control without antibiotics ([2]; 240 mcg): 66%

[O-][n+]1ccccc1SSc1cccc[n+]1[O-] [Omadine disulfide]
Percent growth as compared to a growth control without antibiotics ([1]; 5.5 mcg): 36%
Percent growth as compared to a growth control without antibiotics (Escherichia coli 33582; 5.5 mcg): 10%
Percent growth as compared to a growth control without antibiotics (Proteus mirabilis 33583; 5.5 mcg): 71%
Percent growth as compared to a growth control without antibiotics ([2]; 5.5 mcg): 94%

CN(C)c1ccc(N=Nc2ccccc2)cc1 [Methyl Yellow]
pH range [3]: 2.9-4.0 pH

Cc1cc(O)c(C(C)C)cc1C1(c2cc(C(C)C)c(O)cc2C)OS(=O)(=O)c2ccccc21 [Thymol blue]
pH range (acid range) [3]: 1.2-2.8 pH
pH range (basic range) [3]: 8.0-9.6 pH

O=S1(=O)OC(c2ccc(O)c(Cl)c2)(c2ccc(O)c(Cl)c2)c2ccccc21 [Chlorophenol red]
pH range [3]: 4.8-6.4 pH

CC1(C)S[C@@H]2[C@H](NC(=O)C(C(=O)O)c3ccccc3)C(=O)N2[C@H]1C(=O)O (some centres unmarked) [Carbenicillin]
Percent growth as compared to a growth control without antibiotics ([1]; 40 mcg): 77%
Percent growth as compared to a growth control without antibiotics (Escherichia coli 33582; 40 mcg): 54%
Percent growth as compared to a growth control without antibiotics (Proteus mirabilis 33583; 40 mcg): 69%
Percent growth as compared to a growth control without antibiotics ([2]; 40 mcg): 89%

CN(C)c1ccc(C(=C2C=CC(=[N+](C)C)C=C2)c2ccccc2)cc1 [Malachite green]
Percent growth as compared to a growth control without antibiotics ([1]; 3 mcg): 66%
Percent growth as compared to a growth control without antibiotics (Escherichia coli 33582; 3 mcg): 40%
Percent growth as compared to a growth control without antibiotics (Proteus mirabilis 33583; 3 mcg): 107%
Percent growth as compared to a growth control without antibiotics ([2]; 3 mcg): 87%

Cc1cc(C2(c3cc(C)c(O)c(Br)c3)OS(=O)(=O)c3ccccc32)cc(Br)c1O [Bromocresol purple]
pH range [3]: 5.2-6.8 pH

Alizarin yellow
pH range [3]: 10.1-12.0 pH

Azolitmin [Azolitmin (litmus)]
pH range [3]: 5.0-8.0 pH

O=S1(=O)OC(c2cc(Br)c(O)c(Br)c2)(c2cc(Br)c(O)c(Br)c2)c2ccccc21 [Bromophenol blue]
pH range [3]: 3.0-4.6 pH

CC(=O)[O-].[Tl+] [Thallous acetate]
Percent growth as compared to a growth control without antibiotics ([1]; 150 mcg): 47%
Percent growth as compared to a growth control without antibiotics (Escherichia coli 33582; 150 mcg): 40%
Percent growth as compared to a growth control without antibiotics (Proteus mirabilis 33583; 150 mcg): 68%
Percent growth as compared to a growth control without antibiotics ([2]; 150 mcg): 34%

[Cl][Co][Cl] [Cobalt chloride]
Percent growth as compared to a growth control without antibiotics ([1]; 205 mcg): 35%
Percent growth as compared to a growth control without antibiotics (Escherichia coli 33582; 205 mcg): 27%
Percent growth as compared to a growth control without antibiotics (Proteus mirabilis 33583; 205 mcg): 17%
Percent growth as compared to a growth control without antibiotics ([2]; 205 mcg): 52%

CO[C@@H]1[C@@H](OC(N)=O)[C@@H](O)[C@H](Oc2ccc3c(O)c(NC(=O)c4ccc(O)c(CC=C(C)C)c4)c(=O)oc3c2C)OC1(C)C [Novobiocin]
Percent growth as compared to a growth control without antibiotics ([1]; 48 mcg): 16%
Percent growth as compared to a growth control without antibiotics (Escherichia coli 33582; 48 mcg): 9%
Percent growth as compared to a growth control without antibiotics (Proteus mirabilis 33583; 48 mcg): 48%
Percent growth as compared to a growth control without antibiotics ([2]; 48 mcg): 85%

Cc1cc(O)c(C(C)C)cc1C1(c2cc(C(C)C)c(O)cc2C)OC(=O)c2ccccc21 [Thymolphthalein]
pH range [3]: 9.3-10.5 pH

Cc1c(C2(c3cc(C(C)C)c(O)c(Br)c3C)OS(=O)(=O)c3ccccc32)cc(C(C)C)c(O)c1Br [Bromothymol blue]
pH range [3]: 6.0-7.6 pH

CN(C)c1ccc(N=Nc2ccc(S(=O)(=O)O)cc2)cc1 [Methyl orange]
pH range [3]: 3.1-4.4 pH

O=S1(=O)OC(c2ccc(O)cc2)(c2ccc(O)cc2)c2ccccc21 [Phenol red]
pH range [3]: 6.8-8.4 pH

Brilliant green
Percent growth as compared to a growth control without antibiotics ([1]; 3 mcg): 37%
Percent growth as compared to a growth control without antibiotics (Escherichia coli 33582; 3 mcg): 104%
Percent growth as compared to a growth control without antibiotics (Proteus mirabilis 33583; 3 mcg): 84%
Percent growth as compared to a growth control without antibiotics ([2]; 3 mcg): 101%

[N-]=[N+]=[N-] [Sodium azide]
Percent growth as compared to a growth control without antibiotics ([1]; 75 mcg): 47%
Percent growth as compared to a growth control without antibiotics (Escherichia coli 33582; 75 mcg): 6%
Percent growth as compared to a growth control without antibiotics (Proteus mirabilis 33583; 75 mcg): 35%
Percent growth as compared to a growth control without antibiotics ([2]; 75 mcg): 47%

O=S1(=O)OC(c2cc(Br)c(O)c(Br)c2)(c2cc(Br)c(O)c(Br)c2)c2c(Br)c(Br)c(Br)c(Br)c21 [Tetrabromophenol blue]
pH range [3]: 3.0-4.6 pH

CN(C)c1ccc2nc3ccc(=[N+](C)C)cc-3sc2c1 [Methylene blue]
Percent growth as compared to a growth control without antibiotics ([1]; 255 mcg): 56%
Percent growth as compared to a growth control without antibiotics (Escherichia coli 33582; 255 mcg): 20%
Percent growth as compared to a growth control without antibiotics (Proteus mirabilis 33583; 255 mcg): 80%
Percent growth as compared to a growth control without antibiotics ([2]; 255 mcg): 90%

Cc1cc2nc3ccc(N(C)C)cc3nc2cc1N [Neutral red]
pH range [3]: 6.8-8.0 pH

O=S(=O)(O)c1ccc(N=Nc2ccc(Nc3ccccc3)cc2)cc1 [Tropaeolin OO]
pH range [3]: 1.3-3.0 pH

CC(=O)OCC1=C(C(=O)O)N2C(=O)[C@@H](NC(=O)Cc3cccs3)[C@H]2SC1 [Cephalothin]
Percent growth as compared to a growth control without antibiotics ([1]; 13.5 mcg): 66%
Percent growth as compared to a growth control without antibiotics (Escherichia coli 33582; 13.5 mcg): 53%
Percent growth as compared to a growth control without antibiotics (Proteus mirabilis 33583; 13.5 mcg): 26%
Percent growth as compared to a growth control without antibiotics ([2]; 13.5 mcg): 108%

Cc1cc(O)ccc1C1(c2ccc(O)cc2C)OS(=O)(=O)c2ccccc21 [m-Cresol purple]
pH range (acid range) [3]: 1.0-2.6 pH
pH range (basic range) [3]: 7.6-9.2 pH

CCCCCCCCCCCCN [Dodecylamine]
Percent growth as compared to a growth control without antibiotics ([1]; 18.75 mcg): 106%
Percent growth as compared to a growth control without antibiotics (Escherichia coli 33582; 18.75 mcg): 99%
Percent growth as compared to a growth control without antibiotics (Proteus mirabilis 33583; 18.75 mcg): 108%
Percent growth as compared to a growth control without antibiotics ([2]; 18.75 mcg): 118%

CN(C)c1ccc(/N=N/c2ccccc2C(=O)O)cc1 [Methyl red]
pH range [3]: 4.2-6.3 pH

Cc1cc(C2(c3ccc(O)c(C)c3)OS(=O)(=O)c3ccccc32)ccc1O [Cresol red]
pH range (acid range) [3]: 0.2-1.8 pH
pH range (basic range) [3]: 7.2-8.8 pH

Acriflavine
Percent growth as compared to a growth control without antibiotics ([1]; 30 mcg): 55%
Percent growth as compared to a growth control without antibiotics (Escherichia coli 33582; 30 mcg): 5%
Percent growth as compared to a growth control without antibiotics (Proteus mirabilis 33583; 30 mcg): 68%
Percent growth as compared to a growth control without antibiotics ([2]; 30 mcg): 84%

Nc1c(/N=N/c2ccc(-c3ccc(/N=N/c4cc(S(=O)(=O)O)c5ccccc5c4N)cc3)cc2)cc(S(=O)(=O)O)c2ccccc12 [Congo red]
pH range [3]: 3.0-5.0 pH

O=S(=O)(O)c1ccc(N=Nc2ccc(O)cc2O)cc1 [Tropaeolin O]
pH range [3]: 11.1-12.7 pH

O=c1[nH]c(=O)n([C@H]2C[C@H](O)[C@@H](CO)O2)cc1F [Floxuridine]
Percent growth as compared to a growth control without antibiotics ([1]; 36 mcg): 75%
Percent growth as compared to a growth control without antibiotics (Escherichia coli 33582; 36 mcg): 55%
Percent growth as compared to a growth control without antibiotics (Proteus mirabilis 33583; 36 mcg): 35%
Percent growth as compared to a growth control without antibiotics ([2]; 36 mcg): 79%

Cc1c(C2(c3cc(Br)c(O)c(Br)c3C)OS(=O)(=O)c3ccccc32)cc(Br)c(O)c1Br [Bromocresol green (blue), Bromocresol green]
pH range [3]: 3.6-5.2 pH

O=C1OC(c2ccc(O)cc2)(c2ccc(O)cc2)c2ccccc21 [Phenolphthalein]
pH range [3]: 8.3-10.0 pH

O=C(O)c1cc(Br)cc(Br)c1O [Dibromosalicyclic acid]
Percent growth as compared to a growth control without antibiotics ([1]; 750 mcg): 25%
Percent growth as compared to a growth control without antibiotics (Escherichia coli 33582; 750 mcg): 83%
Percent growth as compared to a growth control without antibiotics (Proteus mirabilis 33583; 750 mcg): 38%
Percent growth as compared to a growth control without antibiotics ([2]; 750 mcg): 88%

Colistin
Percent growth as compared to a growth control without antibiotics ([1]; 13 mcg): -44%
Percent growth as compared to a growth control without antibiotics (Escherichia coli 33582; 13 mcg): 3%
Percent growth as compared to a growth control without antibiotics (Proteus mirabilis 33583; 13 mcg): 114%
Percent growth as compared to a growth control without antibiotics ([2]; 13 mcg): 34%
